Experimental data reported in article PMC3934494 (Chemistry & biology, 2013).
Where two headings read alike, the source gives them in different places.

Assays:
[1] = Microsomal stability; format: in vitro ADME; conditions: human microsomes
[2] = Microsomal stability; format: in vitro ADME; conditions: rat microsomes
[3] = test system: WT clade B virus; assay: PhenoSense HIV antiviral assay; format: cell-based
[4] = test system: 12 patient-derived drug resistant viruses; assay: PhenoSense HIV antiviral assay; format: cell-based
[5] = molecular target: HIV-1 protease variant M3: I50V/A71V (Human immunodeficiency virus type 1 group M subtype B, UniProt P04585, A559V/I538V); assay: FRET-based enzymatic assay, enzyme inhibition constants; format: biochemical; conditions: M3 versus WT protease
[6] = molecular target: WT HIV-1 protease (Human immunodeficiency virus type 1 group M subtype B, UniProt P04585); conditions: FDA-approved drugs, ref Nalam, et al., 2010; cited from earlier work

SMILES | Microsomal Stability (Avg. % Fraction Remaining) at 30 Minutes Human ([1]; RTV +) [%] | Microsomal Stability (Avg. % Fraction Remaining) at 30 Minutes Human ([1]; RTV −) [%] | Microsomal Stability (Avg. % Fraction Remaining) at 60 Minutes Human ([1]; RTV +) [%] | Microsomal Stability (Avg. % Fraction Remaining) at 60 Minutes Human ([1]; RTV −) [%] | Microsomal CLint Human ([1]; RTV +) [μL min^-1 mg^1] | Microsomal T1/2 Human ([1]; RTV +) [min] | Microsomal CLint Human ([1]; RTV −) [μL min^-1 mg^1] | Microsomal T1/2 Human ([1]; RTV −) [min] | Microsomal Stability (Avg. % Fraction Remaining) at 30 Minutes Rat ([2]; RTV +) [%] | Microsomal Stability (Avg. % Fraction Remaining) at 30 Minutes Rat ([2]; RTV −) [%] | Microsomal Stability (Avg. % Fraction Remaining) at 60 Minutes Rat ([2]; RTV +) [%] | Microsomal Stability (Avg. % Fraction Remaining) at 60 Minutes Rat ([2]; RTV −) [%] | Microsomal CLint Rat ([2]; RTV +) [μL min^-1 mg^1] | Microsomal T1/2 Rat ([2]; RTV +) [min] | Microsomal CLint Rat ([2]; RTV −) [μL min^-1 mg^1] | Microsomal T1/2 Rat ([2]; RTV −) [min] | EC50 ([3]; WT clade B virus) | other results
CC[C@H](C)CN(C[C@@H](O)[C@H](Cc1ccccc1)NC(=O)O[C@H]1CO[C@H]2OCC[C@H]21)S(=O)(=O)c1ccc(N)cc1 [10a] | 81 | 42 | 66 | 19 | 21 | 99 | 81 | 26 | 51 | 24 | 35 | 9 | 67 | 31 | 129 | 16 | – | –
CC[C@H](C)CN(C[C@@H](O)[C@H](Cc1ccccc1)NC(=O)O[C@H]1CO[C@H]2OCC[C@H]21)S(=O)(=O)c1ccc(OC)cc1 [10b] | 79 | 0 | 68 | 0 | 19 | 110 | 776 | 3 | 0 | 0 | 0 | 0 | 518 | 4 | 885 | 2 | more potent | EC50 ([4]; read-out: average EC50, average against 12 different drug resistant strains): 1.33 nM
CC[C@H](C)CN(C[C@@H](O)[C@H](Cc1ccccc1)NC(=O)O[C@H]1CO[C@H]2OCC[C@H]21)S(=O)(=O)c1ccc(CO)cc1 [10c] | 93 | 0 | 89 | 0 | 8 | >180 | 590 | 4 | 45 | 0 | 22 | 0 | 79 | 26 | 664 | 3 | – | –
CC[C@H](C)CN(C[C@@H](O)[C@H](Cc1ccccc1)NC(=O)O[C@H]1CO[C@H]2OCC[C@H]21)S(=O)(=O)c1ccc2c(c1)OCO2 [10d] | 80 | 9 | 60 | 4 | 24 | 85 | 232 | 9 | 0 | 0 | 0 | 0 | 771 | 3 | 987 | 2 | more potent | –
CCC(CC)CN(C[C@@H](O)[C@H](Cc1ccccc1)NC(=O)O[C@H]1CO[C@H]2OCC[C@H]21)S(=O)(=O)c1ccc(OC)cc1 [11b] | 75 | 0 | 66 | 0 | 23 | 90 | 844 | 2 | 50 | 18 | 20 | 19 | 74 | 28 | 150 | 14 | more potent | –
CCC(CC)CN(C[C@@H](O)[C@H](Cc1ccccc1)NC(=O)O[C@H]1CO[C@H]2OCC[C@H]21)S(=O)(=O)c1ccc(CO)cc1 [11c] | 64 | 0 | 69 | 0 | 26 | 81 | 829 | 3 | 79 | 0 | 57 | 0 | 27 | 78 | 907 | 2 | – | –
CCC(CC)CN(C[C@@H](O)[C@H](Cc1ccccc1)NC(=O)O[C@H]1CO[C@H]2OCC[C@H]21)S(=O)(=O)c1ccc2c(c1)OCO2 [11d] | 55 | 0 | 46 | 0 | 46 | 45 | 617 | 3 | 21 | 0 | 4 | 0 | 156 | 13 | 712 | 3 | – | –
CC(C)CN(C[C@@H](O)[C@H](Cc1ccccc1)NC(=O)O[C@H]1CO[C@H]2OCC[C@H]21)S(=O)(=O)c1ccc(N)cc1 [DRV, Darunavir] | – | – | – | – | – | – | – | – | – | – | – | – | – | – | – | – | – | decrease in M3 susceptibility compared to WT protease [5]: 50 fold; EC50 [3]: 0.4 nM; EC50 ([4]; Human immunodeficiency virus 1, read-out: average EC50): 5.98 nM; antiviral potency ([4]; MDR strains with the I50V protease mutation): loses significant potency
Cc1cccc(C)c1OCC(=O)N[C@@H](Cc1ccccc1)[C@@H](O)C[C@H](Cc1ccccc1)NC(=O)[C@H](C(C)C)N1CCCNC1=O [LPV] | – | – | – | – | – | – | – | – | – | – | – | – | – | – | – | – | – | Ki [6]: 0.005 nM
